For the assay, the target named is T1, GLuc (Gaussia luciferase) (Gaussia princeps (in: crustaceans), UniProt Q9BLZ2).
T1 construct: secreted GLuc without SERCaMP peptide, in culture medium of transfected SH-SY5Y cells
T1 sequence (Q9BLZ2 18-185): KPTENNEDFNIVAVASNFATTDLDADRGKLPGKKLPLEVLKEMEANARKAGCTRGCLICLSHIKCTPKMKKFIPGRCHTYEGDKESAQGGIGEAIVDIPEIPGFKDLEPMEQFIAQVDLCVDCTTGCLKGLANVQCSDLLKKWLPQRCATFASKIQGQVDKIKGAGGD
Put plainly: luminescence, culture medium of transfected SH-SY5Y cells. The class given is biochemical. Particulars: 8 μM coelenterazine; flash kinetics.

Take `Oc1ccc(Cc2nc3c(Cc4ccccc4)nc(-c4ccc(O)cc4)cn3c2O)cc1` [coelenterazine]: the “luminescence, culture medium of transfected SH-SY5Y cells” value is “GLuc and secNLuc both showed activity towards CTZ, with GLuc exhibiting flash kinetics”.

The values above are taken from paper PMC5389830, “Longitudinal monitoring of Gaussia and Nano luciferase activities to concurrently assess ER calcium homeostasis and ER stress in vivo” (PLoS ONE, 2017).
